Reference: US11896591B2, “Compositions and methods for preparing and using mitochondrial uncouplers” (UNIVERSITY OF VIRGINIA PATENT FOUNDATION, priority 2017, dated 2024)

Test system: whole cells
Test: Oxygen consumption rate (OCR) in whole cells, Seahorse XF-24 Flux Analyzer
Format: cell-based
Settings: binned EC50 values; increase in oxygen consumption rate in whole cells
Experimental: Biological activities of the compounds synthesized is determined by determining increase in oxygen consumption rate (OCR).
OCR is measured using a Seahorse XF-24 Flux Analyzer (Seahorse Biosciences, North Billerica, MA). NMuLi, C2C12, and L6 cells are seeded in a Seahorse 24-well tissue culture plate at a density of 3.5×10^4 cells/well, isolated cardiomyocytes at a density of 4×10^4 cells/well, and human primary fibroblasts at a density of 1.1×10^4 cells/well. The cells are then allowed to adhere for 24 h. […] Compounds are injected during the assay and OCR is measured using 2 min measurement periods.
2-3 wells are used per condition and averaged over three plates (n=6-9). Statistical significance is determined by two-way ANOVA with Bonferroni's posttest.

Q: How did the EC50 turn out when `COC(=O)c1ccc(Nc2nc3nonc3nc2Nc2ccccc2F)cc1` [Compound 4y, Methyl 4-((6-((2-fluorophenyl)amino)-[1,2,5]oxadiazolo[3,4-b]pyrazin-5-yl)amino)benzoate] was run?
A: Its EC50 is less than 5 µM.

Q: How did the EC50 turn out when `FC(F)(F)Oc1cccc(Nc2nc3nonc3nc2Nc2cccc(OC(F)(F)F)c2)c1` [Compound 3l, N^5,N^6-bis(3-(trifluoromethoxy)phenyl)-[1,2,5]oxadiazolo[3,4-b]pyrazine-5,6-diamine] was run?
A: The EC50 was less than 5 µM.

Q: With `Cc1ccc(Nc2nc3c(nc2Nc2ccccc2F)nc(C(F)(F)F)n3C)cc1` [Compound 13u, 1-Methyl-N^5-(2-fluorophenyl)-N^6-(p-tolyl)-2-(trifluoromethyl)-imidazo[4,5-b]pyrazine-5,6-diamine] as the compound, how does the EC50 read?
A: Its EC50 is greater than 20 µM.

Q: For `Fc1ccccc1Nc1nc2nonc2nc1Nc1cc(C(F)(F)F)cc(C(F)(F)F)c1` [Compound 4aa, N^5-(3,5-bis(trifluoromethyl)phenyl)-N^6-(2-fluorophenyl)-[1,2,5]oxadiazolo[3,4-b]pyrazine-5,6-diamine], which EC50 is on record?
A: Its EC50 is less than 5 µM.

Q: How did the EC50 turn out when `Cn1c(C(F)(F)F)nc2nc(Nc3ccccc3C(F)(F)F)c(Nc3ccccc3C(F)(F)F)nc21` [Compound 13c, N^5,N^6-bis(2-(trifluoromethyl)phenyl)-1-methyl-2-(trifluoromethyl)-imidazo[4,5-b]pyrazine-5,6-diamine] was run?
A: Its EC50 is 5 to 20 µM.

Q: `Fc1ccccc1Nc1nc2nc(C(F)(F)F)[nH]c2nc1NC1CCCCC1` [Compound 12v, N^5-(2-fluorophenyl)-N^6-cyclohexyl-2-(trifluoromethyl)-1H-imidazo[4,5-b]pyrazine-5,6-diamine] was tested. Which EC50 did it give?
A: Its EC50 is greater than 20 µM.

Q: With `Cn1c(C(F)(F)F)nc2nc(Nc3ccccc3F)c(Nc3ccccc3F)nc21` [Compound 13a, N^5,N^6-bis(2-fluorophenyl)-1-methyl-2-(trifluoromethyl)-imidazo[4,5-b]pyrazine-5,6-diamine] as the compound, how does the EC50 read?
A: The EC50 was greater than 20 µM.

Q: With `FC(F)(F)c1cccc(Nc2nc3nonc3nc2Nc2cccc(C(F)(F)F)c2)c1` [Compound 3r, N^5,N^6-bis(3-(trifluoromethyl)phenyl)-[1,2,5]oxadiazolo[3,4-b]pyrazine-5,6-diamine] as the compound, how does the EC50 read?
A: Its EC50 is less than 5 µM.

Q: Which EC50 does the source give for `Fc1ccccc1Nc1nc2nonc2nc1Nc1ccc(OC(F)(F)F)cc1` [Compound 4s, N^5-(2-fluorophenyl)-N^6-(4-(trifluoromethoxy)phenyl)-[1,2,5]oxadiazolo[3,4-b]pyrazine-5,6-diamine] here?
A: Its EC50 is less than 5 µM.

Q: For `COc1ccc(Nc2nc3nc(C(F)(F)F)[nH]c3nc2Nc2ccc(OC)cc2)cc1` [Compound 12n, N^5,N^6-bis(4-methoxyphenyl)-2-(trifluoromethyl)-1H-imidazo[4,5-b]pyrazine-5,6-diamine], which EC50 is on record?
A: The EC50 was greater than 20 µM.

Q: With `COc1ccc(Nc2nc3nonc3nc2Nc2ccccc2F)cc1` [Compound 4l, N^5-(2-fluorophenyl)-N^6-(4-methoxyphenyl)-[1,2,5]oxadiazolo[3,4-b]pyrazine-5,6-diamine] as the compound, how does the EC50 read?
A: The EC50 was less than 5 µM.

Q: `Fc1cc(C(F)(F)F)ccc1Nc1nc2nonc2nc1Nc1ccc(C(F)(F)F)cc1F` [Compound 3w, N^5,N^6-bis(2-fluoro-4-(trifluoromethyl)phenyl)-[1,2,5]oxadiazolo[3,4-b]pyrazine-5,6-diamine] was tested. Which EC50 did it give?
A: Its EC50 is less than 5 µM.

Q: How did the EC50 turn out when `FC(F)(F)Oc1ccc(Nc2nccnc2Nc2ccc(OC(F)(F)F)cc2)cc1` [Compound 16n, N^2,N^3-bis(4-(trifluoromethoxy)phenyl)pyrazine-2,3-diamine] was run?
A: The EC50 was less than 5 µM.

Q: With `COC(=O)c1ccc(Nc2nc3nonc3nc2Nc2ccc(C(=O)OC)cc2)cc1` [Compound 3t, Dimethyl 4,4′-([1,2,5]oxadiazolo[3,4-b]pyrazine-5,6-diylbis(azanediyl))dibenzoate] as the compound, how does the EC50 read?
A: The EC50 was less than 5 µM.

Q: With `FC(F)(F)c1cc(Nc2nc3nc(C(F)(F)F)[nH]c3nc2Nc2cc(C(F)(F)F)cc(C(F)(F)F)c2)cc(C(F)(F)F)c1` [Compound 12d, N^5,N^6-bis(3,5-bis(trifluoromethyl)phenyl)-2-(trifluoromethyl)-1H-imidazo[4,5-b]pyrazine-5,6-diamine] as the compound, how does the EC50 read?
A: The EC50 was 5 to 20 µM.

Q: With `Fc1cccc(Nc2nc3nonc3nc2Nc2cccc(F)c2)c1` [Compound 3n, N^5,N^6-bis(3-fluorophenyl)-[1,2,5]oxadiazolo[3,4-b]pyrazine-5,6-diamine] as the compound, how does the EC50 read?
A: Its EC50 is less than 5 µM.

Q: For `FC(F)(F)Oc1ccccc1Nc1nc2nonc2nc1Nc1ccccc1OC(F)(F)F` [Compound 3k, N^5,N^6-bis(2-(trifluoromethoxy)phenyl)-[1,2,5]oxadiazolo[3,4-b]pyrazine-5,6-diamine], which EC50 is on record?
A: The EC50 was less than 5 µM.

Q: How did the EC50 turn out when `Cn1c(C(F)(F)F)nc2nc(Nc3ccccc3F)c(NC3CCCCC3)nc21` [Compound 13v, 1-Methyl-N^5-(2-fluorophenyl)-N^6-cyclohexyl-2-(trifluoromethyl)-imidazo[4,5-b]pyrazine-5,6-diamine] was run?
A: Its EC50 is greater than 20 µM.

Q: With `Fc1ccccc1Nc1nc2nonc2nc1Nc1cccc(C(F)(F)F)c1F` [Compound 4bb, N^5-(2-fluoro-3-(trifluoromethyl)phenyl)-N^6-(2-fluorophenyl)-[1,2,5]oxadiazolo[3,4-b]pyrazine-5,6-diamine] as the compound, how does the EC50 read?
A: The EC50 was less than 5 µM.

Q: With `Fc1ccccc1Nc1nc2nonc2nc1Nc1ccc(C(F)(F)F)cc1` [Compound 4w, N^5-(2-fluorophenyl)-N^6-(4-(trifluoromethyl)phenyl)-[1,2,5]oxadiazolo[3,4-b]pyrazine-5,6-diamine] as the compound, how does the EC50 read?
A: The EC50 was less than 5 µM.

Q: `Fc1ccccc1Nc1nc2nc(C(F)(F)F)[nH]c2nc1Nc1ccccc1` [Compound 12s, N^5-(2-fluorophenyl)-N^6-phenyl-2-(trifluoromethyl)-1H-imidazo[4,5-b]pyrazine-5,6-diamine] was tested. Which EC50 did it give?
A: The EC50 was 5 to 20 µM.

Q: For `Fc1ccccc1Nc1nc2nonc2nc1Nc1ccccc1` [Compound 4a, N^5-(2-fluorophenyl)-N^6-phenyl-[1,2,5]oxadiazolo[3,4-b]pyrazine-5,6-diamine], which EC50 is on record?
A: The EC50 was less than 5 µM.

Q: How did the EC50 turn out when `FC(F)(F)c1cc(Nc2nc3nonc3nc2Nc2cc(C(F)(F)F)cc(C(F)(F)F)c2)cc(C(F)(F)F)c1` [Compound 3z, N^5,N^6-bis(3,5-bis(trifluoromethyl)phenyl)-[1,2,5]oxadiazolo[3,4-b]pyrazine-5,6-diamine] was run?
A: The EC50 was greater than 20 µM.

Q: `Cn1c(C(F)(F)F)nc2nc(Nc3cc(C(F)(F)F)ccc3F)c(Nc3cc(C(F)(F)F)ccc3F)nc21` [Compound 13b, N^5,N^6-bis(2-fluoro-5-(trifluoromethyl)phenyl)-1-methyl-2-(trifluoromethyl)-imidazo[4,5-b]pyrazine-5,6-diamine] was tested. Which EC50 did it give?
A: Its EC50 is 5 to 20 µM.

Q: `Fc1ccccc1Nc1nc2nonc2nc1Nc1ccccc1C(F)(F)F` [Compound 4u, N^5-(2-fluorophenyl)-N^6-(2-(trifluoromethyl)phenyl)-[1,2,5]oxadiazolo[3,4-b]pyrazine-5,6-diamine] was tested. Which EC50 did it give?
A: The EC50 was less than 5 µM.

Q: Which EC50 does the source give for `Fc1cc(Nc2nc3nc(C(F)(F)F)[nH]c3nc2Nc2ccc(OC(F)(F)F)c(F)c2)ccc1OC(F)(F)F` [Compound 12f, N^5,N^6-bis(3-fluoro-4-(trifluoromethoxy)phenyl)-2-(trifluoromethyl)-1H-imidazo[4,5-b]pyrazine-5,6-diamine] here?
A: Its EC50 is 5 to 20 µM.

Q: For `Cn1c(C(F)(F)F)nc2nc(Nc3cc(C(F)(F)F)cc(C(F)(F)F)c3)c(Nc3cc(C(F)(F)F)cc(C(F)(F)F)c3)nc21` [Compound 13d, N^5,N^6-bis(3,5-bis(trifluoromethyl)phenyl)-1-methyl-2-(trifluoromethyl)-imidazo[4,5-b]pyrazine-5,6-diamine], which EC50 is on record?
A: Its EC50 is 5 to 20 µM.

Q: For `Cn1c(C(F)(F)F)nc2nc(Nc3ccccc3F)c(Nc3ccccc3)nc21` [Compound 13s, 1-Methyl-N^5-(2-fluorophenyl)-N^6-phenyl-2-(trifluoromethyl)-imidazo[4,5-b]pyrazine-5,6-diamine], which EC50 is on record?
A: The EC50 was greater than 20 µM.

Q: `Fc1ccc(Nc2nc3nonc3nc2Nc2ccccc2F)c(F)c1` [Compound 4f, N^5-(2,4-difluorophenyl)-N^6-(2-fluorophenyl)-[1,2,5]oxadiazolo[3,4-b]pyrazine-5,6-diamine] was tested. Which EC50 did it give?
A: The EC50 was less than 5 µM.

Q: `Fc1ccc(C(F)(F)F)cc1Nc1nc2nonc2nc1Nc1cc(C(F)(F)F)ccc1F` [Compound 3y, N^5,N^6-bis(2-fluoro-5-(trifluoromethyl)phenyl)-[1,2,5]oxadiazolo[3,4-b]pyrazine-5,6-diamine] was tested. Which EC50 did it give?
A: Its EC50 is less than 5 µM.

Q: With `Cn1c(C(F)(F)F)nc2nc(Nc3cccc(F)c3F)c(Nc3cccc(F)c3F)nc21` [Compound 13j, N^5,N^6-bis(2,3-difluorophenyl)-1-methyl-2-(trifluoromethyl)-imidazo[4,5-b]pyrazine-5,6-diamine] as the compound, how does the EC50 read?
A: Its EC50 is greater than 20 µM.

Q: With `FC(F)(F)c1ccc(Nc2nccnc2Nc2ccc(C(F)(F)F)cc2)cc1` [Compound 16c, N^2,N^3-bis(4-(trifluoromethyl)phenyl)pyrazine-2,3-diamine] as the compound, how does the EC50 read?
A: Its EC50 is less than 5 µM.

Q: For `FC(F)(F)c1ccc(Nc2nc3nonc3nc2Nc2cccc(C(F)(F)F)c2)cc1` [Compound 4x, N^5-(3-(trifluoromethyl)phenyl)-N^6-(4-(trifluoromethyl)phenyl)-[1,2,5]oxadiazolo[3,4-b]pyrazine-5,6-diamine], which EC50 is on record?
A: The EC50 was less than 5 µM.

Q: Which EC50 does the source give for `Cc1cccc(Nc2nc3nonc3nc2Nc2ccccc2F)c1` [Compound 4h, N^5-(2-fluorophenyl)-N^6-(m-tolyl)-[1,2,5]oxadiazolo[3,4-b]pyrazine-5,6-diamine] here?
A: Its EC50 is less than 5 µM.

Q: With `COC(=O)n1c(C(F)(F)F)nc2nc(Nc3cc(F)cc(F)c3)c(Nc3cc(F)cc(F)c3)nc21` [Compound 14c, Methyl 5,6-bis((3,5-difluorophenyl)amino)-2-(trifluoromethyl)-imidazo[4,5-b]pyrazine-1-carboxylate] as the compound, how does the EC50 read?
A: The EC50 was 5 to 20 µM.

Q: Which EC50 does the source give for `COc1ccc(Nc2nc3c(nc2Nc2ccccc2F)nc(C(F)(F)F)n3C)cc1` [Compound 13r, 1-Methyl-N^5-(2-fluorophenyl)-N^6-(4-methoxyphenyl)-2-(trifluoromethyl)-imidazo[4,5-b]pyrazine-5,6-diamine] here?
A: The EC50 was greater than 20 µM.

Q: Which EC50 does the source give for `CCOc1cccc(Nc2nc3nonc3nc2Nc2cccc(OCC)c2)c1` [Compound 3h, N^5,N^6-bis(3-ethoxyphenyl)-[1,2,5]oxadiazolo[3,4-b]pyrazine-5,6-diamine] here?
A: Its EC50 is 5 to 20 µM.
